Test results reported in patent EP2123285A1, “Nucleosidic phosphoantigens for use in VGAMMA9DELTA2 T cell-mediated therapy” (INSERM (Institut National de la Santé et de la Recherche …, priority 2008, dated 2009).
“Also recorded” adds a separate entry of the source. Where two headings read alike, the source gives them in different places.

Assays:
[1] = test system: polyclonal Vγ9Vδ2 T cell line; experiment: Degranulation assay for cytolytic function (CD107a), direct stimulation with soluble antigens; type: cell-based, human; settings: for surface expression of CD107a (cytotoxicity machinery): soluble antigen, no enzyme added
Excerpt: (§1) Brefeldin A was omitted. […] Cells were washed twice in FACS medium and stained for TCR-Vδ2. Data were acquired and analyzed as for proliferation assay. Results are expressed as the mean of triplicate microwell cultures +/-S.E.M.

[2] = test system: Vγ9Vδ2 T cells; experiment: Intracellular cytokine staining (IFNγ); type: cell-based, human
[3] = biological target: nucleotide pyrophosphatase (Crotalus adamanteus, UniProt J3SEZ3)
[4] = biological target: T1, F1-ATPase purified from bovine heart mitochondria (Bos taurus, UniProt P00829+P19483); experiment: F1-ATPase activity, ATP bioluminescence assay; type: biochemical; settings: 1µM ATP, 5min, ApppI added in the reaction mixture
T1 construct: F1-ATPase purified from bovine heart mitochondria; from tissue; host or cells: bovine heart mitochondria
Procedure: (§2) F1-ATPase complexes were recovered from ammonium sulfate precipitates by centrifugation (17000g, 3min) and dissolved in ATPase assay buffer (10mM HEPES, 150mM NaCl, 5mM KCl, 2mM MgCl2, pH 7.5). ATP and ADP were measured using two different assays. For ATP measurements, a bioluminescence assay was used: 100ng F1-ATPase were incubated at room temperature in 50µL of ATPase assay buffer containing 1µM ATP and the indicated apyrase-treated ApppI concentrations in white 96 wells plates. After 5 minutes, 30µL of reconstituted luciferase from the ATP CLSII Kit (Roche) were added and luminescence was acquired on an Orion luminometer (Berthold Detection Systems). The kinetics of ADP production resulting from ATP hydrolysis was measured using the lactate dehydrogenase/pyruvate kinase assay and was adapted from Gledhill, J.R. et al., Biochem J 386, 591-598, 2005: 2µg F1-ATPase were incubated in 200µL of ATPase assay buffer supplemented with phosphoenol pyruvate (500µM), NADH (250µM), lactate dehydrogenase (LDH, 1U) and pyruvate kinase (PK, 5U), with the indicated ATP concentrations and with or without 100µM apyrase-treated ApppI. OD340nm was measured during 2 minutes (with one measurement every 10 seconds) on a Varioskan Flash spectrophotometer (Thermo Electron Corporation). The initial hydrolysis rate (V0) was calculated from a linear regression of the data. […]

[5] = test system: polyclonal Vγ9Vδ2 T cell line; experiment: Degranulation assay (CD107a) with tumor cell lines as presenting or pulsed cells; type: cell-based, human; settings: for stimulatory activity of pulsed 721.221 cells: 721.221 cell line; for pulsing of RPMI-8226 cells: 2h, 10µM; for sensitivity of stimulation by pulsed cells to apyrase and pyrophosphatase: Daudi or K562 cells pulsed overnight (pamidronate 50µM, ApppI 20µM), apyrase 0.2U/mL, NPP 0.02U/mL, alone or in combination
[6] = biological target: T2, bovine F1-ATPase (in the form of F1Fo complexes) (Bos taurus, UniProt P00829+P19483); experiment: Pulsing on F1Fo-coated beads and subsequent T cell activation (CD107a); type: binding
T2 construct: from tissue
Procedure: as §1
For immobilization on beads, solubilized F1Fo complexes were diluted to 1/3000 (5µg/mL) in 1 ml of PBS and incubated with 10^7 6µm polystyrene beads (Biovalley, Marne-la-Vallée, France) for 4h at room temperature on a rotating wheel. Beads were then pelleted by centrifugation (2min, 12000g), washed and incubated in 1mL of 1% BSA in PBS overnight, washed once with PBS and kept for several days at 4°C in PBS containing 1% BSA. Beads were used in stimulation assays as cultured cell lines. Control beads were prepared similarly except that F1Fo was replaced by BSA. In some experiments the beads were loaded with phosphoantigens: to this end, after washing a suitable aliquot, beads were incubated with ApppI or IPP (50µM) for 2 hours at 37°C in complete SFM medium, washed extensively, and used for Vγ9Vδ2 T cells stimulation. In phosphatase sensitivity assays (Fig.8) NPP or control medium were added to the beads in microculture wells 30min before pulsing the beads or addition of T cells. The beads were then washed and T cells were added with or without supplementation with the same phosphatases. T cell activation was evaluated as described above.

[7] = biological target: T3, apyrase (Solanum tuberosum, UniProt P80595); experiment: HPLC analysis of sensitivity to apyrase; type: in vitro ADME; settings: 100µM, 0.2U/mL apyrase, 1h at 37°C in RPMI
T3 sequence (P80595 1-454): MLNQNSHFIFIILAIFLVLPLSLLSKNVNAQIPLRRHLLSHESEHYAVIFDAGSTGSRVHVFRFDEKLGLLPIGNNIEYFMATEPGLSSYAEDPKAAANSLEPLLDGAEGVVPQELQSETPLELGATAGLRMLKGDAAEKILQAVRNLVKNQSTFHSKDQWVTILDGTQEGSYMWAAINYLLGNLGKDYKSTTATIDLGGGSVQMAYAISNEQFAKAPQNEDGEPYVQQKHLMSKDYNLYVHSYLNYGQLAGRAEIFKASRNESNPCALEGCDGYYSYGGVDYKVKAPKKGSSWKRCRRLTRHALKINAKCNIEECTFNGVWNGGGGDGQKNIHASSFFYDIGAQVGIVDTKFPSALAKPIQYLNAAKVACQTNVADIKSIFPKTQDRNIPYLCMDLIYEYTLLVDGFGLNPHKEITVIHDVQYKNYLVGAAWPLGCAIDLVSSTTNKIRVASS
Procedure: Reaction mixes containing nucleosidic compounds were adjusted to 200µL with water and products were separated by HPLC (System Gold, Beckman Coulter) on a PL-SAX anion exchange column (1000Å, 5µm, 50x4.6mm from Polymer Labs Varian, Marseille, France) using water (A) and 1M (NH4)2HPO4, pH 3.5 (B) and the following elution gradient: 0-1 min: 0% B; 1-11 min: 0% to 30% B; 11-13 min: 100% B; 13-19min: 0% B. Eluted nucleotides were detected by monitoring UV absorbance at 260nm. In these conditions, adenosine and AMP are not retained on the column and are detected with the elution front. To evaluate phosphatase sensitivity, ApppI and ATP (100µM final concentration) were incubated for 1h at 37°C in 20µL RPMI in the presence of 0.2U/mL apyrase or 0.02U/mL nucleotide pyrophosphatase before analysis.

[8] = biological target: T1, F1-ATPase purified from bovine heart mitochondria; experiment: F1-ATPase activity, kinetics of ADP production (lactate dehydrogenase/pyruvate kinase assay); type: biochemical; settings: 100 µM ApppI, low ATP concentrations
Procedure: as §2

[9] = test system: Vγ9Vδ2 T cells; experiment: Single cell analysis of calcium mobilization; type: cell-based, human; settings: ApppI-loaded, F1-coated beads
[10] = test system: Vγ9Vδ2 T cells; experiment: Proliferation assay: Vγ9Vδ2 T cell expansion from PBL stimulated with phosphoantigen plus IL-2; type: cell-based, human

Cc1nc(N=Nc2ccc(S(=O)(=O)O)cc2S(=O)(=O)O)c(COP(=O)(O)O)c(C=O)c1O [PPADS, pyridoxal phosphate-6-azophenyl-2',4'-disulfonic acid]
effect on ApppI stimulatory activity ([1]; PPADS added to ApppI stimulation): inhibition | effect on IPP stimulatory activity ([1]; PPADS added to IPP stimulation): partially decreases

C=C(C)CCOP(=O)(O)OP(=O)(O)OP(=O)(O)OC[C@H]1O[C@@H](n2cnc3c(N)ncnc32)[C@H](O)[C@@H]1O [ApppI, 1-(adenosin-5'-yl) 3-(3-methylbut-3-enyl) triphosphoric diester]
effect of exogenous NPP on stimulatory activity ([1]; NPP 0.02U/mL added to the T cell stimulation assay): greatly increased | effect of apyrase on stimulatory activity ([1]; apyrase 0.2U/mL, antigen 10µM): abrogates completely | surface expression of CD107a (cytotoxicity machinery) [1]: less bioactive than IPP itself | effect of ApppI added to IPP on the IPP response ([2]; IPP (10µM) plus ApppI at varying concentrations): does not compete with IPP | induction of intracellular IFN-γ production ([2]; PBL stimulation): could induce | higher concentration required for a similar cytokine response ([2]; relative to IPP, intracellular IFNγ): 50-100 fold | hydrolysis by NPP (HPLC) [3]: can be hydrolyzed | increase of the amount of ATP hydrolyzed by the complex [4]: two-fold | stimulatory activity of pulsed 721.221 cells [5]: cannot be significantly pulsed; also recorded: poorly stimulatory | pulsing of RPMI-8226 cells ([5]; 4°C): abrogated | pulsing of RPMI-8226 cells ([5]; 37°C): sufficient to confer stable stimulatory activity | pulsing of RPMI-8226 cells ([5]; 37°C after 2h pre-treatment with cytochalasin D (10µM)): abrogated | sensitivity of stimulation by pulsed cells to apyrase and pyrophosphatase [5]: completely resistant | stimulation by combination of RPMI-8226 cells and phosphoantigen ([5]; RPMI-8226 cells 1:1 ratio plus soluble antigen): synergistic activation | stimulatory activity retained on pulsed tumor cells after extensive washing ([5]; tumor cell lines pulsed overnight, compared to tumor cells not washed): 70% | stimulatory activity of loaded F1-ATPase-coated beads ([6]; ApppI treated with NPP before pulsing on beads): no activity is retained | stimulatory activity of loaded F1-ATPase-coated beads ([6]; NPP 0.02U/mL added in the T cell stimulation assay): a strong stimulatory activity can be revealed | stimulatory activity of loaded F1-ATPase-coated beads ([6]; beads incubated with 50µM antigen for 2h, washed, no NPP): confers some additional stimulatory activity | stimulatory activity of loaded F1-ATPase-coated beads ([6]; beads treated with NPP after pulsing, then washed): retain an activity identical to that of beads which have not been treated with NPP | HPLC profile after apyrase treatment [7]: did not change its HPLC profile | initial rate of ADP production relative to the rate in the absence of ApppI [8]: approximately twice | intracellular calcium mobilization ([9]; NPP 0.02U/mL added after contact): slow but strong and sustained calcium response | intracellular calcium mobilization ([9]; no NPP): clear activation in few cells only | homogeneity of the culture (Vγ9Vδ2 T cells) ([10]; 5 µM): ~94% | induction of proliferation ([10]; PBL stimulation): could induce | higher molar concentration required for a similar effect on Vγ9Vδ2 T cell expansion from PBLs ([10]; relative to IPP, 1 week after PBL stimulation): 5-10 fold

NCCC(O)(P(=O)(O)O)P(=O)(O)O [pamidronate, reference compound]
stimulatory activity of pulsed 721.221 cells [5]: poorly stimulatory | sensitivity of stimulation by pulsed cells to apyrase and pyrophosphatase [5]: completely resistant

C=C(C)CCO[P@@](=O)(O)OP(=O)(O)O [IPP, isopentenyl pyrophosphate, reference compound]
surface expression of CD107a (cytotoxicity machinery) [1]: stronger stimulation | stimulatory activity retained on pulsed tumor cells after extensive washing [5]: less than 20%

Nc1ncnc2c1ncn2[C@@H]1O[C@H](COP(=O)(O)OP(=O)(O)O)[C@@H](O)[C@H]1O [ADP]
effect on T cell stimulations ([1]; data not shown): no effect

Nc1ncnc2c1ncn2[C@@H]1O[C@H](COP(=O)(O)OP(=O)(O)OP(=O)(O)O)[C@@H](O)[C@H]1O [ATP, reference compound]
HPLC profile after apyrase treatment [7]: completely hydrolyzed

CC[C@H](C)C(=O)O[C@H]1C[C@@H](C)C=C2C=C[C@H](C)[C@H](CC[C@@H]3C[C@@H](O)CC(=O)O3)[C@H]21 [lovastatin, reference compound]
effect on stimulatory activity induced by pulsing with ApppI ([5]; K562 cells, lovastatin 20µM, ApppI 20µM, overnight): does not inhibit | effect on stimulatory activity induced by pamidronate ([5]; K562 cells, lovastatin 20µM, pamidronate 50µM, overnight): efficiently abrogates
